Assay results as given in patent publication EP0751957B1, “PEPTIDE FRAGMENTS OF MICROBIAL STRESS PROTEINS AND PHARMACEUTICAL COMPOSITION MADE THEREOF FOR THE TREATMENT AND PREVENTION OF INFLAMMATORY DISEASES” (priority 1994, dated 2004).

Tests used:
[1] = tested on: primed lymph node cells (PLNC); experiment: T cell proliferation assay, PLNC from peptide-immunised rats; type: cell-based, Lewis rats; conditions: for CPM PLNC: in vitro peptide 20 µg/ml
Procedure: Immunisations with synthetic peptides and primed lymph node populations: Rats were immunised with 50 µg of synthetic peptide in PBS/DDA in each hind footpad (i.e. 50 µg/footpad, 100 µg/rat). Ten days later, draining popliteal lymph nodes were removed, disaggregated, washed three times and used as a source of primed lymph node cells (PLNC). In some experiments, PLNC were derived as pooled inguinal and popliteal lymph nodes from AA rats 35-42 days post Mt immunisation.
(§1) T cell proliferation assays: PLNC were cultured in triplicate in 200 µl flat bottom microtitre wells (Costar) at 2 x 10^5 cells per well with or without antigen. In initial experiments PLNC were tested for responsiveness to individual peptides at concentrations of 5 and 20 µg/ml, and Mt, hsp65 and PPD over a range of concentrations. Concanavalin A (2 µg/ml) was used as a positive control for T cell proliferation. Cultures were incubated for 96 h at 37°C in a humidified atmosphere of 5% CO2. Cultures were pulsed for the final 16 h with [^3H] TdR (Amersham, U.K., 1 uCi/well) and TdR uptake measured using a liquid scintillation β counter. Assays using T cell lines were performed as above using 2 x 10^4 line cells per well with irradiated (30 Gy) syngeneic accessory cells (either 3 x 10^5 splenocytes/well or 10^6 thymocytes/well). Results are expressed as mean counts per minute (cpm) of triplicate cultures. In experiments where responses to Ag were low, responses were considered significant if the stimulation index (S.I. = […]) was greater than two and Student's t tests gave p < 0.01.
To determine whether immunisation of rats with synthetic peptides was effective at priming for T cell reactivity to hsp65 epitopes, in vitro proliferative responses following immunisation with 100 µg of peptide each containing individual T cell epitopes were examined. PLNC isolated ten days after immunisation were tested for response to the immunising peptide, overlapping peptides and to hsp65 (Table II). PLNC responses were observed after immunisation with seven of the nine peptides. Responses were not seen after immunisation with peptides 386-400 and 511-525.
(§2) T cell responses by immunisation with hsp65 peptides. Rats were immunised with synthetic peptides containing individual hsp65 epitopes (100 µg peptide/DDA per rat). Ten days later PLNC were isolated and tested for responses to overlapping peptides (20 µg/ml). Peptide-specific T cell lines were generated by bulk in vitro stimulation of PLNC with immunising peptide. Lines were tested for responses to overlapping peptides (10 µg/ml). […] Results are expressed as mean cpm of triplicate cultures. All SEM were less than 20%.

[2] = tested on: Peptide-specific T cell lines; experiment: T cell proliferation assay, peptide-specific T cell lines from peptide-immunised rats; type: cell-based, Lewis rats; conditions: for CPM T Cell Line: in vitro peptide 10 µg/ml
Procedure: as §1
T cell lines: T cell lines with specificity for mycobacterial hsp65 or peptides were generated by bulk stimulation of either hsp65-PLNC or Mt-PLNC. PLNC were cultured at 5 x 10^6/ml in culture medium supplemented with 2% normal rat serum (NRS) in the presence of 10 µg/ml Ag. After three days viable cells were harvested using a ficoll-isopaque gradient and cultured for a further four days in culture medium + 5% FCS and 5% TCGF (Con A-activated rat spleen supernatant). Seven days after initial stimulation lines were restimulated with irradiated spleen accessory cells and 10 µg/ml Ag in culture medium + NRS. Lines were maintained ir. this seven day restimulation cycle. Short term epitope-specific T cell lines were also generated from rats immunised with synthetic peptides. Peptide-PLNC were cultured as above in the presence of 10 µg/ml peptide.
Bulk stimulation generated T cell lines to eight of the nine peptides tested. These eight lines were tested for specificity after four in vitro restimulations (Table II). All responded to the immunising peptide and, to some extent, to hsp65.
as §2

[3] = target: RT1.B^1 MHC class II molecule (rat (Lewis)); experiment: cell-based or functional assay
hsp65-PLNC = experiment: T cell proliferation assay, hsp65-PLNC; type: cell-based, Lewis rats; conditions: PLNC from hsp65-immunised rats; peptides 5 and 20 µg/ml
Procedure: Immunisations and primed lymph node populations: Rats were immunised with either Mt or hsp65. Mt was suspended at 5 mg/ml in IFA or DDA and 100 µl injected in each hind footpad (i.e. 500 µg/footpad, 1 mg/rat). Hsp65 (1 mg/ml in PBS) was mixed 1:1 with DDA and 100 µl injected (i.e. 50 µg/footpad, 100 µg/rat). Ten to 21 days later, draining popliteal lymph nodes were removed, disaggregated, washed three times and used as a source of primed lymph node cells (PLNC). In control experiments splenocytes and lymph nodes from unimmunised rats and PLNC from rats immunised with IFA or DDA/PBS alone were used.
as §1
Hsp65-PLNC were analysed for responsiveness to a panel of peptides covering the entire sequence of hsp65 (Fig. 3a). […] In terms of magnitude of response, three regions of the molecule (residues 176-190, 211-230 and 221-240) appeared to contain the "dominant" T cell epitopes, while regions 86-100. 251-270, 396-410 and 506-525 contained "subdominant" or minor epitopes.

[4] = tested on: hsp65-specific T cell line; experiment: T cell proliferation assay, hsp65-specific T cell line; type: cell-based, Lewis rats; conditions: short term lines from ten day hsp65-PLNC, seven days after first restimulation
Procedure: as §1
T cell lines: T cell lines with specificity for mycobacterial hsp65 or peptides were generated by bulk stimulation of either hsp65-PLNC or Mt-PLNC. PLNC were cultured at 5 x 10^6/ml in culture medium supplemented with 2% normal rat serum (NRS) in the presence of 10 µg/ml Ag. […]

[5] = PLNC 10 days after immunisation with peptide 86-100 (100 µg/DDA), mean of triplicates
[6] = T cell line from 86-100-immunised PLNC
[7] = PLNC 10 days after immunisation with peptide 176-190 (100 µg/DDA)
[8] = T cell line from 176-190-immunised PLNC
[9] = PLNC 10 days after immunisation with peptide 211-225 (100 µg/DDA)
[10] = T cell line from 211-225-immunised PLNC
[11] = PLNC 10 days after immunisation with peptide 226-240 (100 µg/DDA)
[12] = T cell line from 226-240-immunised PLNC
[13] = PLNC 10 days after immunisation with peptide 256-270 (100 µg/DDA)
[14] = T cell line from 256-270-immunised PLNC
[15] = PLNC 10 days after immunisation with peptide 396-410 (100 µg/DDA)
[16] = T cell line from 396-410-immunised PLNC
[17] = PLNC 10 days after immunisation with peptide 446-460 (100 µg/DDA)
[18] = T cell line from 446-460-immunised PLNC
[19] = PLNC 10 days after immunisation with peptide 511-525 (100 µg/DDA)
[20] = T cell line from 511-525-immunised PLNC

Q: How did the “CPM PLNC” value [1, 5] turn out when “81-95: synthetic 15mer, residues 81-95 of mycobacterial hsp65 (DDVAGDGTTTATVLA; UniProt P9WPE7 81-95, looked up, fragment)” was run?
A: 15296 cpm

Q: What about the “response of T cell line generated following immunisation with the 86-100 peptide” value [2] of the same substance?
A: responded

Q: And the “CPM T Cell Line” value [2, 6]?
A: 15785 cpm

Q: How did the “CPM PLNC” value [1, 5] turn out when “91-105: synthetic 15mer, residues 91-105 of mycobacterial hsp65” was run?
A: 1999 cpm

Q: And the “response of T cell line generated following immunisation with the 86-100 peptide” value [2]?
A: responded

Q: And the “CPM T Cell Line” value [2, 6]?
A: 18444 cpm

Q: Which “CPM PLNC” value [1, 7] does the source give for “171-185: synthetic 15mer, residues 171-185 of mycobacterial hsp65” here?
A: 3082 cpm

Q: What about the “CPM T Cell Line” value [2, 8] of the same substance?
A: 1640 cpm

Q: For “181-195: synthetic 15mer, residues 181-195 of mycobacterial hsp65”, which “CPM PLNC” value [1, 7] is on record?
A: 1916 cpm

Q: And the “CPM T Cell Line” value [2, 8]?
A: 1653 cpm

Q: Which results are given for “206-220: synthetic 15mer, residues 206-220 of mycobacterial hsp65”?
A: CPM PLNC [1, 9]: 645 cpm; CPM T Cell Line [2, 10]: 988 cpm

Q: “216-230: synthetic 15mer, residues 216-230 of mycobacterial hsp65” was tested. Which “CPM PLNC” value [1, 9] did it give?
A: 11117 cpm

Q: And the “CPM T Cell Line” value [2, 10]?
A: 102341 cpm

Q: How did the “CPM PLNC” value [1, 11] turn out when “221-235: synthetic 15mer, residues 221-235 of mycobacterial hsp65” was run?
A: 7381 cpm

Q: And the “CPM T Cell Line” value [2, 12]?
A: 100306 cpm

Q: What does the source list for “231-245: synthetic 15mer, residues 231-245 of mycobacterial hsp65”?
A: CPM PLNC [1, 11]: 1655 cpm; CPM T Cell Line [2, 12]: 862 cpm

Q: What does the source list for “251-265: synthetic 15mer, residues 251-265 of mycobacterial hsp65”?
A: CPM PLNC [1, 13]: 6391 cpm; CPM T Cell Line [2, 14]: 66063 cpm; response of the line generated against M.256-270 (line P.m52) ([2]; irradiated syngeneic spleen APC): responded

Q: What does the source list for “261-275: synthetic 15mer, residues 261-275 of mycobacterial hsp65”?
A: CPM PLNC [1, 13]: 2553 cpm; CPM T Cell Line [2, 14]: 646 cpm

Q: With “391-405: synthetic 15mer, residues 391-405 of mycobacterial hsp65” as the substance, how does the “CPM PLNC” value [1, 15] read?
A: 2280 cpm

Q: And the “CPM T Cell Line” value [2, 16]?
A: 39335 cpm

Q: For “401-415: synthetic 15mer, residues 401-415 of mycobacterial hsp65 (AKAAVEEGIVAGGGV; UniProt P9WPE7 401-415, looked up, fragment)”, which “CPM PLNC” value [1, 15] is on record?
A: 3211 cpm

Q: And the “CPM T Cell Line” value [2, 16]?
A: 2011 cpm

Q: With “441-455: synthetic 15mer, residues 441-455 of mycobacterial hsp65” as the substance, how does the “CPM PLNC” value [1, 17] read?
A: 4715 cpm

Q: And the “CPM T Cell Line” value [2, 18]?
A: 17805 cpm

Q: For “451-465: synthetic 15mer, residues 451-465 of mycobacterial hsp65”, which “CPM PLNC” value [1, 17] is on record?
A: 2130 cpm

Q: What about the “CPM T Cell Line” value [2, 18] of the same substance?
A: 1283 cpm

Q: How did the “CPM PLNC” value [1, 19] turn out when “506-520: synthetic 15mer, residues 506-520 of mycobacterial hsp65” was run?
A: 2754 cpm

Q: What about the “CPM T Cell Line” value [2, 20] of the same substance?
A: 61293 cpm

Q: “516-530: synthetic 15mer, residues 516-530 of mycobacterial hsp65” was tested. Which “CPM PLNC” value [1, 19] did it give?
A: 2821 cpm

Q: And the “CPM T Cell Line” value [2, 20]?
A: 1231 cpm

Q: How did the reduction of peptide (1 µg/ml) induced T cell line proliferation by anti-RT1.B mAb 0X6 (10 µg/ml) [3] turn out when mycobacterial hsp65 peptide 86-100 was run?
A: > 70%

Q: With mycobacterial hsp65 peptide 176-190 as the substance, how does the reduction of peptide (1 µg/ml) induced T cell line proliferation by anti-RT1.B mAb 0X6 (10 µg/ml) [3] read?
A: > 70%

Q: Which reduction of peptide (1 µg/ml) induced T cell line proliferation by anti-RT1.B mAb 0X6 (10 µg/ml) [3] does the source give for mycobacterial hsp65 peptide 211-225 here?
A: > 70%

Q: How did the reduction of peptide (1 µg/ml) induced T cell line proliferation by anti-RT1.B mAb 0X6 (10 µg/ml) [3] turn out when mycobacterial hsp65 peptide 226-240 was run?
A: > 70%

Q: Which reduction of peptide (1 µg/ml) induced T cell line proliferation by anti-RT1.B mAb 0X6 (10 µg/ml) [3] does the source give for mycobacterial hsp65 peptide 256-270 here?
A: > 70%

Q: mycobacterial hsp65 peptide 396-410 was tested. Which reduction of peptide (1 µg/ml) induced T cell line proliferation by anti-RT1.B mAb 0X6 (10 µg/ml) [3] did it give?
A: > 70%

Q: mycobacterial hsp65 peptide 446-460 was tested. Which reduction of peptide (1 µg/ml) induced T cell line proliferation by anti-RT1.B mAb 0X6 (10 µg/ml) [3] did it give?
A: > 70%

Q: For mycobacterial hsp65 peptide 511-525, which reduction of peptide (1 µg/ml) induced T cell line proliferation by anti-RT1.B mAb 0X6 (10 µg/ml) [3] is on record?
A: > 70%

Q: Which “hsp65-PLNC proliferative response to peptide” value (hsp65-PLNC) does the source give for “peptide 180-188: synthetic 9mer, minimal AA-associated epitope 180-188 of mycobacterial hsp65 (TFGLQLELT; UniProt P9WPE7 180-188, looked up, fragment) [reference compound]” here?
A: induce responses, but at a lower level

Q: What about the “CPM PLNC” value [1, 7] of the same substance?
A: 7859 cpm

Q: What about the “CPM T Cell Line” value [2, 8] of the same substance?
A: 23275 cpm

Q: Which results are given for “peptide 386-400: synthetic 15mer, residues 386-400 of mycobacterial hsp65”?
A: hsp65-PLNC proliferative response to peptide (hsp65-PLNC): failed to stimulate; hsp65-specific T cell line response to peptide [4]: did stimulate; PLNC responses after immunisation with the peptide ([1]; 100 µg peptide, PLNC isolated ten days after immunisation): not seen
